Three molecules from PubChem BioAssay AID270 (DTP/NCI, 2004) can be followed below.

Each structure is given as a SMILES string. Several values for one entry are separate records, joined by “and”; a condition that tells them apart may be missing. Equal entries are not always repeated. Records with an inconclusive call do not appear.

The test has as its system BDF1 mice, s.c. Lewis lung carcinoma, T/C %. Kind of test: NCI In Vivo Anticancer Drug Screen. Data for tumor model Lewis Lung Carcinoma (subcutaneous) in B6D2F1 (BDF1) mice. Put shortly:
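First, mice carry a transplantable tumor. Next, groups receive either compound or vehicle. Finally, survival or tumor dimensions in the dosed animals are divided by the corresponding control figure.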

Regarding `O=NN(CCCl)C(=O)NC1CCCCC1`, the T/C was 91 % of control (endpoint: median survival time, dose: 0.12 mg/kg/injection, schedule: Q08HX024 (ip), vehicle: Klucel (hydroxypropylcellulose) (HPC), higher = longer survival); 181 % of control (endpoint: median survival time, dose: 0.12 mg/kg/injection, schedule: Q08HX024 (ip), vehicle: saline, higher = longer survival); 106 % of control and 111 % of control (endpoint: median survival time, dose: 0.25 mg/kg/injection, schedule: Q08HX024 (ip), vehicle: Klucel (hydroxypropylcellulose) (HPC), higher = longer survival); 182 % of control (endpoint: median survival time, dose: 0.25 mg/kg/injection, schedule: Q08HX024 (ip), vehicle: saline, higher = longer survival); 103 % of control and 115 % of control (endpoint: median survival time, dose: 0.5 mg/kg/injection, schedule: Q08HX024 (ip), vehicle: Klucel (hydroxypropylcellulose) (HPC), higher = longer survival); 103 % of control (endpoint: median survival time, dose: 0.5 mg/kg/injection, schedule: Q08HX024 (ip), vehicle: saline, higher = longer survival). Moreover, the T/C was 119 % of control (endpoint: median survival time, dose: 1.0 mg/kg/injection, schedule: Q08HX024 (ip), vehicle: Klucel (hydroxypropylcellulose) (HPC), higher = longer survival); 91 % of control (endpoint: median survival time, dose: 1.0 mg/kg/injection, schedule: Q08HX024 (ip), vehicle: saline, higher = longer survival); 120 % of control (endpoint: median survival time, dose: 2.4 mg/kg/injection, schedule: Q01DX001 (ip), vehicle: other, higher = longer survival); 112 % of control (endpoint: median survival time, dose: 4.0 mg/kg/injection, schedule: Q01DX009 (ip), vehicle: saline with Tween-80, higher = longer survival); 109 % of control (endpoint: median survival time, dose: 4.7 mg/kg/injection, schedule: Q01DX001 (ip), vehicle: other, higher = longer survival); 95 % of control and 106 % of control and 123 % of control (endpoint: median survival time, dose: 5.0 mg/kg/injection, schedule: Q01DX001 (ip), vehicle: Klucel (hydroxypropylcellulose) (HPC), higher = longer survival). Further, the T/C by setting is: (endpoint: median survival time, dose: 8.0 mg/kg/injection, schedule: Q01DX009 (ip), vehicle: saline with Tween-80, higher = longer survival) 120 % of control; (endpoint: median survival time, dose: 9.5 mg/kg/injection, schedule: Q01DX001 (ip), vehicle: other, higher = longer survival) 105 % of control; (endpoint: median survival time, dose: 10.0 mg/kg/injection, schedule: Q01DX001 (ip), vehicle: Klucel (hydroxypropylcellulose) (HPC), higher = longer survival) 86 % of control and 91 % of control and 111 % of control; (endpoint: median survival time, dose: 12.5 mg/kg/injection, schedule: Q01DX001 (ip), vehicle: Klucel (hydroxypropylcellulose) (HPC), higher = longer survival) 93 % of control and 113 % of control; (endpoint: median survival time, dose: 12.5 mg/kg/injection, schedule: Q01DX001 (ip), vehicle: saline with Tween-80, higher = longer survival) 158 % of control; (endpoint: median survival time, dose: 18.9 mg/kg/injection, schedule: Q01DX001 (ip), vehicle: other, higher = longer survival) 150 % of control. Moreover, the T/C by setting is: (endpoint: median survival time, dose: 20.0 mg/kg/injection, schedule: Q01DX001 (ip), vehicle: Klucel (hydroxypropylcellulose) (HPC), higher = longer survival) 97 % of control and 115 % of control; (endpoint: median survival time, dose: 25.0 mg/kg/injection, schedule: Q01DX001 (ip), vehicle: Klucel (hydroxypropylcellulose) (HPC), higher = longer survival) 108 % of control; (endpoint: median survival time, dose: 27.0 mg/kg/injection, schedule: Q11DX002 (ip), vehicle: Klucel (hydroxypropylcellulose) (HPC), higher = longer survival) 111 % of control; (endpoint: median survival time, dose: 32.0 mg/kg/injection, schedule: Q01DX009 (ip), vehicle: Klucel (hydroxypropylcellulose) (HPC), higher = longer survival) 94 % of control; (endpoint: median survival time, dose: 33.0 mg/kg/injection, schedule: Q01DX001 (ip), vehicle: carboxymethylcellulose (CMC), higher = longer survival) 102 % of control; (endpoint: median survival time, dose: 33.0 mg/kg/injection, schedule: Q06DX002 (ip), vehicle: carboxymethylcellulose (CMC), higher = longer survival) 180 % of control. Besides, the T/C by setting is: (endpoint: median survival time, dose: 33.0 mg/kg/injection, schedule: Q08DX002 (ip), vehicle: carboxymethylcellulose (CMC), higher = longer survival) 100 % of control; (endpoint: median survival time, dose: 33.0 mg/kg/injection, schedule: Q12DX002 (ip), vehicle: carboxymethylcellulose (CMC), higher = longer survival) 102 % of control; (endpoint: median survival time, dose: 37.8 mg/kg/injection, schedule: Q01DX001 (ip), vehicle: other, higher = longer survival) 160 % of control; (endpoint: median survival time, dose: 40.0 mg/kg/injection, schedule: Q11DX002 (ip), vehicle: Klucel (hydroxypropylcellulose) (HPC), higher = longer survival) 79 % of control and 97 % of control; (endpoint: median survival time, dose: 40.0 mg/kg/injection, schedule: Q11DX002 (oral), vehicle: Klucel (hydroxypropylcellulose) (HPC), higher = longer survival) 86 % of control; (endpoint: median survival time, dose: 50.0 mg/kg/injection, schedule: Q01DX001 (ip), vehicle: Klucel (hydroxypropylcellulose) (HPC), higher = longer survival) 67 % of control. Besides, the T/C is, setting by setting: (endpoint: median survival time, dose: 50.0 mg/kg/injection, schedule: Q01DX001 (ip), vehicle: carboxymethylcellulose (CMC), higher = longer survival) 100 % of control; (endpoint: median survival time, dose: 50.0 mg/kg/injection, schedule: Q06DX002 (ip), vehicle: carboxymethylcellulose (CMC), higher = longer survival) 151 % of control; (endpoint: median survival time, dose: 50.0 mg/kg/injection, schedule: Q08DX002 (ip), vehicle: carboxymethylcellulose (CMC), higher = longer survival) 92 % of control; (endpoint: median survival time, dose: 50.0 mg/kg/injection, schedule: Q10DX002 (ip), vehicle: carboxymethylcellulose (CMC), higher = longer survival) 103 % of control; (endpoint: median survival time, dose: 50.0 mg/kg/injection, schedule: Q12DX002 (ip), vehicle: carboxymethylcellulose (CMC), higher = longer survival) 115 % of control; (endpoint: median survival time, dose: 60.0 mg/kg/injection, schedule: Q11DX002 (ip), vehicle: Klucel (hydroxypropylcellulose) (HPC), higher = longer survival) 53 % of control and 113 % of control. Also, the T/C is 90 % of control (endpoint: median survival time, dose: 60.0 mg/kg/injection, schedule: Q11DX002 (oral), vehicle: Klucel (hydroxypropylcellulose) (HPC), higher = longer survival); 124 % of control (endpoint: median survival time, dose: 75.7 mg/kg/injection, schedule: Q01DX001 (ip), vehicle: other, higher = longer survival); 112 % of control (endpoint: median survival time, dose: 80.0 mg/kg/injection, schedule: Q01DX001 (ip), vehicle: Klucel (hydroxypropylcellulose) (HPC), higher = longer survival); 75 % of control (endpoint: median survival time, dose: 90.0 mg/kg/injection, schedule: Q11DX002 (oral), vehicle: Klucel (hydroxypropylcellulose) (HPC), higher = longer survival); 154 % of control (endpoint: median survival time, dose: 100.0 mg/kg/injection, schedule: Q01DX001 (ip), vehicle: saline with Tween-80, higher = longer survival); 110 % of control (endpoint: median survival time, dose: 160.0 mg/kg/injection, schedule: Q01DX001 (ip), vehicle: Klucel (hydroxypropylcellulose) (HPC), higher = longer survival). Besides, the T/C runs as follows: (endpoint: median tumor weight (est.), dose: 4.0 mg/kg/injection, schedule: Q01DX009 (ip), vehicle: Klucel (hydroxypropylcellulose) (HPC), higher = larger tumour) 66 % of control; (endpoint: median tumor weight (est.), dose: 8.0 mg/kg/injection, schedule: Q01DX009 (ip), vehicle: Klucel (hydroxypropylcellulose) (HPC), higher = larger tumour) 46 % of control; (endpoint: median tumor weight (est.), dose: 12.5 mg/kg/injection, schedule: Q01DX001 (ip), vehicle: Klucel (hydroxypropylcellulose) (HPC), higher = larger tumour) 88 % of control; (endpoint: median tumor weight (est.), dose: 16.0 mg/kg/injection, schedule: Q01DX009 (ip), vehicle: Klucel (hydroxypropylcellulose) (HPC), higher = larger tumour) 3 % of control; (endpoint: median tumor weight (est.), dose: 19.0 mg/kg/injection, schedule: Q01DX001 (ip), vehicle: carboxymethylcellulose (CMC), higher = larger tumour) 72 % of control; (endpoint: median tumor weight (est.), dose: 25.0 mg/kg/injection, schedule: Q01DX001 (ip), vehicle: Klucel (hydroxypropylcellulose) (HPC), higher = larger tumour) 48 % of control. Also, the T/C by setting is: (endpoint: median tumor weight (est.), dose: 38.0 mg/kg/injection, schedule: Q01DX001 (ip), vehicle: carboxymethylcellulose (CMC), higher = larger tumour) 46 % of control; (endpoint: median tumor weight (est.), dose: 57.0 mg/kg/injection, schedule: Q01DX001 (ip), vehicle: carboxymethylcellulose (CMC), higher = larger tumour) 34 % of control.

Consider `OCN(CO)c1nc(N(CO)CO)nc(N(CO)CO)n1`, for which the T/C (endpoint: median survival time, dose: 6.25 mg/kg/injection, schedule: Q01DX009 (ip), vehicle: saline with Tween-80, higher = longer survival) is 109 % of control; the T/C (endpoint: median survival time, dose: 12.5 mg/kg/injection, schedule: Q01DX009 (ip), vehicle: saline with Tween-80, higher = longer survival) is 107 % of control; the T/C (endpoint: median survival time, dose: 25.0 mg/kg/injection, schedule: Q01DX009 (ip), vehicle: saline with Tween-80, higher = longer survival) was 102 % of control.

For `NC(=O)NO`, the T/C is 66 % of control (endpoint: mean tumor weight (est.), dose: 100.0 mg/kg/injection, schedule: Q01DX009 (ip), vehicle: water, higher = larger tumour); 28 % of control (endpoint: mean tumor weight (est.), dose: 200.0 mg/kg/injection, schedule: Q01DX009 (ip), vehicle: water, higher = larger tumour); 33 % of control (endpoint: mean tumor weight (est.), dose: 400.0 mg/kg/injection, schedule: Q01DX009 (ip), vehicle: water, higher = larger tumour); 58 % of control (endpoint: mean tumor weight, dose: 25.0 mg/kg/injection, schedule: Q01DX011 (ip), vehicle: saline, higher = larger tumour); 90 % of control (endpoint: mean tumor weight, dose: 50.0 mg/kg/injection, schedule: Q01DX011 (ip), vehicle: saline, higher = larger tumour); 89 % of control (endpoint: mean tumor weight, dose: 100.0 mg/kg/injection, schedule: Q01DX011 (ip), vehicle: saline, higher = larger tumour). For the same molecule, the T/C (endpoint: mean tumor weight, dose: 200.0 mg/kg/injection, schedule: Q01DX011 (ip), vehicle: saline, higher = larger tumour) is 31 % of control; the T/C (endpoint: median survival time, dose: 2.5 mg/kg/injection, schedule: Q08HX024 (ip), vehicle: saline, higher = longer survival) was 92 % of control; the T/C (endpoint: median survival time, dose: 10.0 mg/kg/injection, schedule: Q08HX024 (ip), vehicle: Klucel (hydroxypropylcellulose) (HPC), higher = longer survival) is 181 % of control; the T/C (endpoint: median survival time, dose: 20.0 mg/kg/injection, schedule: Q08HX024 (ip), vehicle: Klucel (hydroxypropylcellulose) (HPC), higher = longer survival) was 181 % of control; the T/C (endpoint: median survival time, dose: 40.0 mg/kg/injection, schedule: Q08HX024 (ip), vehicle: Klucel (hydroxypropylcellulose) (HPC), higher = longer survival) is 95 % of control; the T/C (endpoint: median survival time, dose: 40.0 mg/kg/injection, schedule: Q08HX024 (ip), vehicle: saline, higher = longer survival) was 90 % of control. Besides, the T/C runs as follows: (endpoint: median survival time, dose: 97.0 mg/kg/injection, schedule: Q01DX009 (ip), vehicle: saline, higher = longer survival) 119 % of control; (endpoint: median survival time, dose: 100.0 mg/kg/injection, schedule: Q01DX009 (ip), vehicle: water, higher = longer survival) 94 % of control; (endpoint: median survival time, dose: 200.0 mg/kg/injection, schedule: Q01DX009 (ip), vehicle: water, higher = longer survival) 100 % of control; (endpoint: median survival time, dose: 1250.0 mg/kg/injection, schedule: Q01DX009 (ip), vehicle: saline, higher = longer survival) 56 % of control.
